Results on three molecules are retold here after patent US7402663B2, “Modified peptide” (University of Ulster, priority 2001, dated 2008).

Like-named read-outs stand apart in the source and are kept apart here. Numbered stars: 1 amine (or outer) side, 2 acyl side, 3 side chain; on linkers, the order of the positions; unused ones are H or OH. Square brackets hold non-standard residues; d marks the D form. Ends that are not written are not given here. Peptide text beside a SMILES is read from it. X1 = O=C(O)C[C@@H](C(=O)[*:2])N(C[C@H](O)[C@@H](O)[C@H](O)[C@H](O)CO)[*:1]; sY = N[C@@H](Cc1ccc(OS(=O)(=O)O)cc1)C(=O)O

Data set [1] can be described thus: Effects of mouse serum on in vitro degradation of peptides (HPLC). It counts as in vitro ADME. As for the experimental part: Effects of mouse serum on degradation of CCK-8, Asp^1glucitol CCK-8 and pGlu-Gln CCK-8. Serum (20 μl) from fasted Swiss TO mice was incubated at 37° C. with 10 μg of either native CCK-8, Asp^1-glucitol CCK-8 or pGlu-Gln CCK-8 for periods up to 2 h in a reaction mixture (final vol. 500 μl ) containing 50 mmol/l triethanolamine/HCl buffer pH 7.8. The reaction was stopped by addition of 5 μl of TFA and the final volume adjusted to 1.0 ml using 0.1% (v/v) TFA/water. Samples were centrifuged (13,000 g, 5 min) and the supernatant applied to a C-18 Sep-Pak cartridge (Waters/Millipore) which was previously primed and washed with 0.1% (v/v) TFA/water. After washing with 20 ml 0.12% TFA/water, bound material was released by elution with 2 ml of 80% (v/v) acetonitrile/water and concentrated using a Speed-Vac concentrator (AES 1000, Savant). The volume was adjusted to 1.0 ml with 0.12% (v/v) TFA/water and applied to a (250×4.6 mm) Vydac C-18 column pre-equilibrated with 0.12% (v/v) TFA/water at a flow rate of 1.0 ml/min. The concentration of acetonitrile in the eluting solvent was raised from 0 to 31.5% over 15 min, from 31.5 to 38.5% over 30 min, and from 38.5 to 70% over 5 min, using linear gradients monitoring eluting peaks at 206 nm.

In the next data set the test system is Swiss TO mice. As to the kind of experiment: Voluntary food intake in fasted Swiss TO mice after i.p. injection. Type of data set: in vivo, mouse. As for the experimental part: Effects of CCK-8, Asp^1glucitol CCK-8, pGlu-Gln CCK-8 and other peptides on food intake in mice. Studies to evaluate the relative potencies of control CCK-8, Asp^1-glucitol CCK-8, pGlu-Gln CCK-8 and other peptides involved in regulation of feeding were performed using male Swiss TO mice (n=16) aged 7-12 weeks from a colony originating from the Behavioral and Biomedical Research Unit, University of Ulster. The animals were housed individually in an air-conditioned room at 22±2° C. with 12 h light/12 h dark cycle. Drinking water was supplied ad libitum and standard mouse maintenance diet (Trouw Nutrition, Cheshire, UK) was provided for various times as indicated below. The mice were habituated to a daily feeding period of 3 h/day by progressively reducing the feeding period over a 3 week period. On days 1-6, food was supplied from 10.00 to 20.00 h, days 7-14 from 10.00 to 16.00 h and days 15-21 food was restricted to 10.00 to 13.00 h. Body weight, food and water intake were monitored daily.
(§1) Mice which had been previously habituated to feeding for 3 h/day were administered a single i.p. injection of saline (0.9% w/v NaCl, 10 ml/kg) in the fasted state (10.00 h) and food was immediately returned following injection. Two days after the saline injection, mice were randomly allocated into groups of 7-8 animals which were administered a single i.p. injection (from 1 to 100 nmol/kg) of either CCK-8, structurally modified CCK-8 analogues and/or other peptide hormones (including, bombesin, leptin and islet amyloid polypeptide (IAPP)). Food intake was carefully monitored at 30 min intervals up to 180 min post injection. In one series of experiments, the ability of CCK-8 and Asp^1-glucitol CCK-8 to inhibit feeding activity was studied in overnight fasted adult obese hyperglycaemic (ob/ob) mice. All animal studies were done in accordance with the Animals (Scientific Procedures) Act 1986.
Statistical analysis. Groups of data are presented as means±SE. Statistical evaluation was performed using analysis of variance, least significant difference multiple comparisons test and Student's unpaired t-test as appropriate. Differences were considered to be significant if P<0.05.

Data set [2] has as its system obese diabetic (ob/ob) mice. In words: Voluntary food intake in fasted obese diabetic (ob/ob) mice after i.p. injection. Type of data set: in vivo, mouse. Particulars: 100 nmol/kg i.p. As for the experimental part: as §1
FIG. 4 Effect of CCK-8, Asp^1-glucitol CCK-8 or saline on voluntary food intake in obese diabetic (ob/ob) mice. Saline or test agents were administered by i.p. injection (100 nmol/kg) to fasted obese diabetic (ob/ob) mice at time 0 immediately before introduction of food. Cumulative food intake was monitored at 30, 60, 90, 120, 150, 180, 210, 240, 270 and 300 min post injection. Values are means±SE of 8 observations. […]

For data set [3] the following is noted: generally accepted; cited from earlier work.

As to `CSCC[C@H](NC(=O)[C@H](Cc1ccc(OS(=O)(=O)O)cc1)NC(=O)[C@H](CC(=O)O)NC[C@H](O)[C@@H](O)[C@H](O)[C@H](O)CO)C(=O)NCC(=O)N[C@@H](Cc1c[nH]c2ccccc12)C(=O)N[C@@H](CCSC)C(=O)N[C@@H](CC(=O)O)C(=O)N[C@@H](Cc1ccccc1)C(N)=O` [Asp^1-glucitol CCK-8] (H-[X1][sY]MGWMDF-NH2), the “% Total CCK-like material” value in data set [1] is 100%. Also, in data set [1] (Swiss TO, mouse, serum, pH 7.8), the remaining at 1 h, 20 µg/ml came out at 100% and the remaining at 2 h, 20 µg/ml was found to be 100%. In addition, the “potency at reducing food intake compared to equivalent dose of CCK-8” value in the data set on Swiss TO mice (100 nmol/kg i.p., FIG. 3) is reported as “significantly more potent at reducing food intake at each time point (except at 30 min)”. Besides, in the data set on Swiss TO mice (100 nmol/kg i.p., FIG. 3, up to 180 min), the “sustained inhibition of cumulative food intake over 3 h compared to saline” value is recorded as “sustained over the 3 h post-treatment feeding period”. Moreover, in the data set with Swiss TO mice (1 to 100 nmol/kg i.p., FIGS. 5-7), the “dose-response effects on food intake compared with CCK-8” value was “more prolonged effects at lower doses”. In data set [2] (FIG. 4), the “potency compared with native CCK-8” value is recorded as “considerable more potent”. The “effect on voluntary food intake” value in data set [2] (FIG. 4, up to 300 min) is “significantly reduce voluntary food intake”.
What is called half-life is the time in which the quantity being followed falls by half. For the molecule `CSCC[C@H](NC(=O)[C@H](Cc1ccc(OS(=O)(=O)O)cc1)NC(=O)[C@@H](N)CC(=O)O)C(=O)NCC(=O)N[C@@H](Cc1c[nH]c2ccccc12)C(=O)N[C@@H](CCSC)C(=O)N[C@@H](CC(=O)O)C(=O)N[C@@H](Cc1ccccc1)C(N)=O` [CCK-8, Asp^1Tyr^2(SO3H)-Met^3Gly^4Trp^5Met^6Asp^7Phe^8amide], in data set [1] (Swiss TO, pH 7.8, after 1 h incubation with mouse serum, read-out: % converted to CCK-8 fragments (HPLC peak area)), the metabolised at 1 h, 20 µg/ml worked out at 83.1%. In data set [1] (Swiss TO, pH 7.8, after 2 h incubation with mouse serum, read-out: % converted to CCK-8 fragments (HPLC peak area)), the metabolised at 2 h, 20 µg/ml came to 100%. Moreover, the remaining at 1 h, 20 µg/ml in data set [1] (Swiss TO, pH 7.8, intact peptide peak, incubation time 1 h, mouse serum, 37° C., read-out: % Total CCK-like material) turned out to be 16.9%. In addition, in data set [1] (Swiss TO, pH 7.8, intact peptide peak, incubation time 2 h, mouse serum, 37° C., read-out: % Total CCK-like material), the remaining at 2 h, 20 µg/ml came to 0%. In addition, the “% Total CCK-like material” value in data set [1] (intact peptide peak, incubation time 0 h, mouse serum, 37° C.) came out at 100%; in data set [1] (peak CCK-8 fragment (B), incubation time 1 h), 39.3%; in data set [1] (peak CCK-8 fragment (B), incubation time 2 h), 58.7%; in data set [1] (peak CCK-8 fragment (C), incubation time 1 h), 43.8%; in data set [1] (peak CCK-8 fragment (C), incubation time 2 h) it was 29.5%; in data set [1] (peak CCK-8 fragment (D), incubation time 2 h) it was 11.8%. In addition, in data set [3], the half-life is 1 to 2 min.
Turning to “glycated tGLP-1: control peptide with a glucitol adduct on the amino-terminus (glucitol-HAEGTFTSDVSSYLEGQAAKEFIAWLVKGR; ends and bridges not checked; UniProt P01275 98-127, looked up)”, the “induction of satiety (control experiment)” value in the data set on Swiss TO mice (control experiments in this test system) was “insufficient on its own to induce satiety”.
